{
  "source": "ChEMBL document CHEMBL5303765",
  "about": "“Data for DCP probe BAY-7081” (2023)",
  "key": {"[1]": {"target": "Tyrosine-protein kinase ABL1 (Homo sapiens) (UniProt P00519)", "sequence (P00519 whole entry)": "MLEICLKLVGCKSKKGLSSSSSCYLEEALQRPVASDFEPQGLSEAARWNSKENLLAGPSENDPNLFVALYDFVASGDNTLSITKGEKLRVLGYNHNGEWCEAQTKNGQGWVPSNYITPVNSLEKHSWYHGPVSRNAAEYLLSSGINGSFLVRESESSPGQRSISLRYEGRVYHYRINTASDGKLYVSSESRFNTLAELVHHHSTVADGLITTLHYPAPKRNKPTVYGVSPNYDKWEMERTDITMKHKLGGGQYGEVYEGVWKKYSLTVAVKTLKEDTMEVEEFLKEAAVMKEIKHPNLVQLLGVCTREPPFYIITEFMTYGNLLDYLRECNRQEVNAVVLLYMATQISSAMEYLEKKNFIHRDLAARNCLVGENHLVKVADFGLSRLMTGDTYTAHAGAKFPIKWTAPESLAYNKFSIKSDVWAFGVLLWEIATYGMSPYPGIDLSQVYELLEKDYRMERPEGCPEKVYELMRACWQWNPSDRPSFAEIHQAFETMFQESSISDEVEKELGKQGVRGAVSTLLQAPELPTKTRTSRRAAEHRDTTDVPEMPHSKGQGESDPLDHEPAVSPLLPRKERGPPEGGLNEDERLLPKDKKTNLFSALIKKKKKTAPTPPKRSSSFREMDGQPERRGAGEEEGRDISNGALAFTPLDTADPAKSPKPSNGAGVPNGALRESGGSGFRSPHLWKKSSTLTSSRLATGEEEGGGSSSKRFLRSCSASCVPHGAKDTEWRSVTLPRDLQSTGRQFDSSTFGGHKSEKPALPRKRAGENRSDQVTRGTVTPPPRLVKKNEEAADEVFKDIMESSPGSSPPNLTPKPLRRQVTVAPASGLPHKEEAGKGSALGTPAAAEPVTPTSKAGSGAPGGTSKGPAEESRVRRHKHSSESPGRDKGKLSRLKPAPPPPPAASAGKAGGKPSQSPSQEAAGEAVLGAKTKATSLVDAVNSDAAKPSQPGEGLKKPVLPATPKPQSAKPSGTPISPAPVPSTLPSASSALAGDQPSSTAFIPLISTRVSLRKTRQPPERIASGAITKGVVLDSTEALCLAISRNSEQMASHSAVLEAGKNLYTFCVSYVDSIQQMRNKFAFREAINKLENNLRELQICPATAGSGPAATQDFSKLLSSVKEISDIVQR", "test": "ABL1 SGC Tm panel (DSF)", "conditions": "for ΔTm: Compound concentration 10.0 uM"}, "[2]": {"target": "Calcium/calmodulin-dependent protein kinase type II subunit beta (Homo sapiens) (UniProt Q13554)", "sequence (Q13554 whole entry)": "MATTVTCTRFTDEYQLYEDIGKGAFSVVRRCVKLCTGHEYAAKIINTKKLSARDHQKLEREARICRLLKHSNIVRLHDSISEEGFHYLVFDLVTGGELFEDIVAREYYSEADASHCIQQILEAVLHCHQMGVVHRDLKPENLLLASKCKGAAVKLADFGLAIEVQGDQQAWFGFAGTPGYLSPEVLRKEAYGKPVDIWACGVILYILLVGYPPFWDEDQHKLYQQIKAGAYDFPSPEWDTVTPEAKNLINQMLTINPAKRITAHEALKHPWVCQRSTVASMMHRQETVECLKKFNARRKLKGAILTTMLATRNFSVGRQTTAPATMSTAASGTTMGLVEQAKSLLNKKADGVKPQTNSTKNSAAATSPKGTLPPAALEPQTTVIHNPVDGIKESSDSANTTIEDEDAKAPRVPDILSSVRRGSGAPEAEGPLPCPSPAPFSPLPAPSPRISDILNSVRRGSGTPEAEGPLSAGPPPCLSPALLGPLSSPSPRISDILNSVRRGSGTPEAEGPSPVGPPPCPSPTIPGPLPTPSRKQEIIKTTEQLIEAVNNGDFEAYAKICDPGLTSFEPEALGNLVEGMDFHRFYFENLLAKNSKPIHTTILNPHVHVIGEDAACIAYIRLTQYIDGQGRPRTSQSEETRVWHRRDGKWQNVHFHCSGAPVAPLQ", "test": "CAMK2B SGC Tm panel (DSF)", "conditions": "for ΔTm: Compound concentration 10.0 uM"}, "[3]": {"target": "Cyclin-dependent kinase 2 (Homo sapiens) (UniProt P24941)", "test": "CDK2 SGC Tm panel (DSF)", "conditions": "for ΔTm: Compound concentration 10.0 uM"}, "[4]": {"target": "T1, Ephrin type-B receptor 3 (Homo sapiens) (UniProt P54753)", "T1 sequence (whole entry)": "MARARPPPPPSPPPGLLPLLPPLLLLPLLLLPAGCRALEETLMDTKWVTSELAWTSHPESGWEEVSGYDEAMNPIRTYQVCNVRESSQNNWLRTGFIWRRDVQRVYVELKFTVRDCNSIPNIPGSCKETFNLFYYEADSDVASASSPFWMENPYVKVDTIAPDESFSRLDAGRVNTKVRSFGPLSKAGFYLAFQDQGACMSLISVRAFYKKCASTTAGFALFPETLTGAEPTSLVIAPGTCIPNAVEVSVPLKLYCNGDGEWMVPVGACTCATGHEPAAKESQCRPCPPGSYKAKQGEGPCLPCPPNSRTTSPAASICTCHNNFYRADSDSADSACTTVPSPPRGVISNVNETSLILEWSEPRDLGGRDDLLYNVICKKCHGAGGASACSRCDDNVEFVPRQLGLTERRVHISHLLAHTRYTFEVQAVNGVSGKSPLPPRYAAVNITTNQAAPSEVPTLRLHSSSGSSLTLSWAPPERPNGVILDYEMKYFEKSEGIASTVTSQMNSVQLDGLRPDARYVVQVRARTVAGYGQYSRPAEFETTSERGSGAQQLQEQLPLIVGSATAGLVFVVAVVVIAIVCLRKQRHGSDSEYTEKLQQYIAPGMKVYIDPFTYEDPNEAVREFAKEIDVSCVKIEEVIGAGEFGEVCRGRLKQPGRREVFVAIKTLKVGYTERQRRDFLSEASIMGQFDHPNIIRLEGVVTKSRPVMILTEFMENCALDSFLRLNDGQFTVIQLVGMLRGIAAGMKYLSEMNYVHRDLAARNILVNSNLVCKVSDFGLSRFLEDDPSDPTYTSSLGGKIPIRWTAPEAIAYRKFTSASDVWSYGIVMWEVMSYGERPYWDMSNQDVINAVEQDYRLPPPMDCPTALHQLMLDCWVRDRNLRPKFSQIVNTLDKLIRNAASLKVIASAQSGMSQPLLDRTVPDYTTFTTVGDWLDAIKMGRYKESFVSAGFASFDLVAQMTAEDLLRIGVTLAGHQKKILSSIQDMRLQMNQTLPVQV", "test": "EPHB3 SGC Tm panel (DSF)", "conditions": "for ΔTm: Compound concentration 10.0 uM"}, "[5]": {"target": "Fibroblast growth factor receptor 1 (Homo sapiens) (UniProt P11362)", "sequence (P11362 22-822 limits assumed)": "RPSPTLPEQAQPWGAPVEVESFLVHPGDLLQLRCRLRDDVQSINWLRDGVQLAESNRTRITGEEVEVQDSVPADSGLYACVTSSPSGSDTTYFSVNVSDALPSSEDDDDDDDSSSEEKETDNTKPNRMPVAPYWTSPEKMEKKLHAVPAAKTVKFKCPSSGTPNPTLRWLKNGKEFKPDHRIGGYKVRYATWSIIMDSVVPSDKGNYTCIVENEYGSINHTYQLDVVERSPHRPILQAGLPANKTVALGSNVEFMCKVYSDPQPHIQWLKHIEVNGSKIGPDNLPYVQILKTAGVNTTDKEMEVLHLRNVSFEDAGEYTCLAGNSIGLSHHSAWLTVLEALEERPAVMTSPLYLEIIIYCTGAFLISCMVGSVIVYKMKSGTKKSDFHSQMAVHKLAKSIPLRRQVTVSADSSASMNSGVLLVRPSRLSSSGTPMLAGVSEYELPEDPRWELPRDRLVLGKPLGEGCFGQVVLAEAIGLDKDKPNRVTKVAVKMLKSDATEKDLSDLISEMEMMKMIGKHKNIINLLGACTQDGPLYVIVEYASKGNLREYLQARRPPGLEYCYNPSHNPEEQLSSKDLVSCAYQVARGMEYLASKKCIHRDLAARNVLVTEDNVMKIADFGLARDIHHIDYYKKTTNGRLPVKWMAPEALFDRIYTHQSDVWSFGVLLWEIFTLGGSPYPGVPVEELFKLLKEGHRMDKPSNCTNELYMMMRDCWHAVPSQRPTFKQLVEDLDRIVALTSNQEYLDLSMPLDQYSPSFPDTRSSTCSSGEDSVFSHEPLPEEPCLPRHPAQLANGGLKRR", "test": "FGFR1 SGC Tm panel (DSF)", "conditions": "for ΔTm: Compound concentration 10.0 uM"}, "[6]": {"target": "T2, Mitogen-activated protein kinase 13 (Homo sapiens) (UniProt O15264)", "T2 sequence (whole entry)": "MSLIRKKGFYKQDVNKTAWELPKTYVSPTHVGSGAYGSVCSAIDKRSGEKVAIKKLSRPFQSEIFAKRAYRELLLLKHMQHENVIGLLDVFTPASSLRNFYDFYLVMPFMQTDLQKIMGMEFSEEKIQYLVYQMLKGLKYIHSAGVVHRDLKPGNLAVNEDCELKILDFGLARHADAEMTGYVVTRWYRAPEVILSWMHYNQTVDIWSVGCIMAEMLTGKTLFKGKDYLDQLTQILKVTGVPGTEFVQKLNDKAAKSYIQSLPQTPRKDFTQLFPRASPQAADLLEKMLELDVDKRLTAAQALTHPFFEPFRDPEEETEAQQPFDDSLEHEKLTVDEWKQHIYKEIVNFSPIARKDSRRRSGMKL", "test": "MAPK13 SGC Tm panel (DSF)", "conditions": "for ΔTm: Compound concentration 10.0 uM"}, "[7]": {"target": "MAP kinase-activated protein kinase 2 (Homo sapiens) (UniProt P49137)", "sequence (P49137 whole entry, looked up)": "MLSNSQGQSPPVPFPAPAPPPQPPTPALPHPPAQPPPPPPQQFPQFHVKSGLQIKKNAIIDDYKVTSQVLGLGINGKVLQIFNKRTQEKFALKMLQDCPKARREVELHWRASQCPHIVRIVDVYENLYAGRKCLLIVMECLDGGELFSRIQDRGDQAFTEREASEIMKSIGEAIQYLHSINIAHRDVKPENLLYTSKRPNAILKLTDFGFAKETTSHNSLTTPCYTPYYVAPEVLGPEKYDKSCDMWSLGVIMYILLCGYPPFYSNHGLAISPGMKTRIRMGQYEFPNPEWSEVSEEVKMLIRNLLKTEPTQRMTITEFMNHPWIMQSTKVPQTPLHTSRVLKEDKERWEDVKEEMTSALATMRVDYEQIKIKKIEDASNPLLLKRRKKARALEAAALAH", "test": "MAPKAPK2 SGC Tm panel (DSF)", "conditions": "for ΔTm: Compound concentration 10.0 uM"}, "[8]": {"target": "T3, Serine/threonine-protein kinase Nek2 (Homo sapiens) (UniProt P51955)", "T3 sequence (whole entry)": "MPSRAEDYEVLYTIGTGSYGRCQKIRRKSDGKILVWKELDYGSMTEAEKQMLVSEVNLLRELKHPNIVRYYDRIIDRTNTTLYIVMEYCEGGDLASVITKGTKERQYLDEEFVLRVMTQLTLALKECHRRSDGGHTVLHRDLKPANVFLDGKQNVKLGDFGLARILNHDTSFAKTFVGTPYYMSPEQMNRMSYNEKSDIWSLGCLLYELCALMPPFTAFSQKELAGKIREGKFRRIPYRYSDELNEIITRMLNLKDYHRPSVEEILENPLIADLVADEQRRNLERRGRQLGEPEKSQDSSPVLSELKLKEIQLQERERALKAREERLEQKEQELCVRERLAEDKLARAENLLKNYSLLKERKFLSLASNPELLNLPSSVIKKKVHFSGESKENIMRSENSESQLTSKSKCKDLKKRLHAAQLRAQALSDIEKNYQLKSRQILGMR", "test": "NEK2 SGC Tm panel (DSF)", "conditions": "for ΔTm: Compound concentration 10.0 uM"}, "[9]": {"target": "Serine/threonine-protein kinase OSR1 (Homo sapiens) (UniProt O95747)", "sequence (O95747 2-527 limits assumed)": "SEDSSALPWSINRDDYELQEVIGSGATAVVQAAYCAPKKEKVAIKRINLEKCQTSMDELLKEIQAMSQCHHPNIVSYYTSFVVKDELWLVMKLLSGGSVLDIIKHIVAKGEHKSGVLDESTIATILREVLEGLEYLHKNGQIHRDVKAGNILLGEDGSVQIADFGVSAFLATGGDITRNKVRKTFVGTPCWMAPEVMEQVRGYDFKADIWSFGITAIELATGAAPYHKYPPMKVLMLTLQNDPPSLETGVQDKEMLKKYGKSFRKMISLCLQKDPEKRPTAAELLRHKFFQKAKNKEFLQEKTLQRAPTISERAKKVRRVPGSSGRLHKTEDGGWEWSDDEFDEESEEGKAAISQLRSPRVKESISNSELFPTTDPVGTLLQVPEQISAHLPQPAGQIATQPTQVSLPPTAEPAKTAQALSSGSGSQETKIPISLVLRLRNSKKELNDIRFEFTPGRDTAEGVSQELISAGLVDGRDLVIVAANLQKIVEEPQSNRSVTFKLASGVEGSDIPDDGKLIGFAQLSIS", "test": "OSR1 SGC Tm panel (DSF)", "conditions": "for ΔTm: Compound concentration 10.0 uM"}, "[10]": {"target": "5-hydroxytryptamine receptor 5A (Homo sapiens) (UniProt P47898)", "sequence (P47898 whole entry)": "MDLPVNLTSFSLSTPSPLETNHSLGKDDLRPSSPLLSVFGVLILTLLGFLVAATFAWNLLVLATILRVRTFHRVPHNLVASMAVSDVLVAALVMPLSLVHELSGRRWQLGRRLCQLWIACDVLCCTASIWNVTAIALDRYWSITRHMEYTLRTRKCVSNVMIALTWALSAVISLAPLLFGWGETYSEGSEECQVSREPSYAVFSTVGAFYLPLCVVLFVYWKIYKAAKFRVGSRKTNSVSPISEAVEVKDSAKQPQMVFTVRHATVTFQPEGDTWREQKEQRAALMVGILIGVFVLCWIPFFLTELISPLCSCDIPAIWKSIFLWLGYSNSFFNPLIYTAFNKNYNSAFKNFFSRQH", "conditions": "Compound concentration 10.0 uM"}, "[11]": {"target": "D(2) dopamine receptor (Homo sapiens) (UniProt P14416)", "sequence (P14416 whole entry)": "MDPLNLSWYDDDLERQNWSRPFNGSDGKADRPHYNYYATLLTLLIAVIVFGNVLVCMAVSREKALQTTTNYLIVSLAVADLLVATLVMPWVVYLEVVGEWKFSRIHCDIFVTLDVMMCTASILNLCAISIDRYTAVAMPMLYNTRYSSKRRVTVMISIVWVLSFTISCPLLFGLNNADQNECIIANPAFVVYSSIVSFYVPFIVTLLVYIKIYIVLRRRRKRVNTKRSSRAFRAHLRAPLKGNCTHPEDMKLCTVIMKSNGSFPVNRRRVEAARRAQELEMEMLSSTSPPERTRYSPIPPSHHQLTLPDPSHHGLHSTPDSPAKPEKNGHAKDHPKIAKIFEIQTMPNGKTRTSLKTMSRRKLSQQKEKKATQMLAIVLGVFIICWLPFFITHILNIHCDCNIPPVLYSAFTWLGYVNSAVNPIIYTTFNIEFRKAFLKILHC", "conditions": "Compound concentration 10.0 uM"}, "[12]": {"target": "Mu-type opioid receptor (Homo sapiens, UniProt P35372)", "sequence (P35372 whole entry)": "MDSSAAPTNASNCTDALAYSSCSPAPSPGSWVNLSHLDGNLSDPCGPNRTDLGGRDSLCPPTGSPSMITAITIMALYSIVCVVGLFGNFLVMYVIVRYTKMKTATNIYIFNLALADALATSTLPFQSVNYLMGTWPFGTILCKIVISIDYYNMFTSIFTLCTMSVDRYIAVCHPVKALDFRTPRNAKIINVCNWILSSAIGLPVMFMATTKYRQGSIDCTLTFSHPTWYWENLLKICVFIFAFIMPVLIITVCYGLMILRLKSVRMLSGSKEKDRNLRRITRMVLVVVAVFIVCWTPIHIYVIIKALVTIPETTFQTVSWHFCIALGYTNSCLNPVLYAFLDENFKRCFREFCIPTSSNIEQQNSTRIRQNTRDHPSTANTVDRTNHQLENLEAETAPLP", "conditions": "Compound concentration 10.0 uM"}, "[13]": {"target": "T4, Alpha-2B adrenergic receptor (Homo sapiens) (UniProt P18089)", "T4 sequence (whole entry)": "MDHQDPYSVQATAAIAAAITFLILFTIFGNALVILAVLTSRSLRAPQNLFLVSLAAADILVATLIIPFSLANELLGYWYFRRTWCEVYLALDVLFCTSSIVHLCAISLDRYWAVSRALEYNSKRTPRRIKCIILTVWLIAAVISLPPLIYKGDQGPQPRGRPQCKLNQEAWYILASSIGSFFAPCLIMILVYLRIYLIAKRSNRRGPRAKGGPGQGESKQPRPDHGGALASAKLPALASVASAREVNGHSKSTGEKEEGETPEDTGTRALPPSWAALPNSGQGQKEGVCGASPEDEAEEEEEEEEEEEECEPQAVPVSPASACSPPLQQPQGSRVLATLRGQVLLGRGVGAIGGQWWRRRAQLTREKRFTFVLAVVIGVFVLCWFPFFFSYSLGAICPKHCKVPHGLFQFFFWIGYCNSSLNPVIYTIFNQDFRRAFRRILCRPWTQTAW", "conditions": "Compound concentration 10.0 uM"}},
  "data": [
    {"smiles": "CCC[C@@H]1CNCc2c1[nH]c(=O)c(C#N)c2N1CCC2(CC1)CC2", "values": [
      {"measurement": "delta Tm Staurosporine positive control", "setting": "[1]", "value": 8.44},
      {"measurement": "ΔTm", "setting": "[1]", "value": 0.0781},
      {"measurement": "delta Tm Staurosporine positive control", "setting": "[2]", "value": 13.7},
      {"measurement": "ΔTm", "setting": "[2]", "value": -0.647},
      {"measurement": "delta Tm Staurosporine positive control", "setting": "[3]", "value": 14.3},
      {"measurement": "ΔTm", "setting": "[3]", "value": -0.673},
      {"measurement": "delta Tm Staurosporine positive control", "setting": "[4]", "value": 7.02},
      {"measurement": "ΔTm", "setting": "[4]", "value": -2.16},
      {"measurement": "delta Tm Staurosporine positive control", "setting": "[5]", "value": 5.57},
      {"measurement": "ΔTm", "setting": "[5]", "value": -0.198},
      {"measurement": "delta Tm Staurosporine positive control", "setting": "[6]", "value": 8.03},
      {"measurement": "ΔTm", "setting": "[6]", "value": 0.124},
      {"measurement": "delta Tm Staurosporine positive control", "setting": "[7]", "value": 3.96},
      {"measurement": "ΔTm", "setting": "[7]", "value": -0.281},
      {"measurement": "delta Tm Staurosporine positive control", "setting": "[8]", "value": 4.25},
      {"measurement": "ΔTm", "setting": "[8]", "value": -1.52},
      {"measurement": "delta Tm Staurosporine positive control", "setting": "[9]", "value": 8.41},
      {"measurement": "ΔTm", "setting": "[9]", "value": 0.204},
      {"measurement": "inhibition", "setting": "[10]", "value": 3.9, "unit": "%"},
      {"measurement": "inhibition", "setting": "[11]", "value": -4.21, "unit": "%"},
      {"measurement": "inhibition", "setting": "[12]", "value": 57.9, "unit": "%"},
      {"measurement": "inhibition", "setting": "[13]", "value": 16.9, "unit": "%"}
    ]},
    {"smiles": "CCC[C@H]1CNCc2c1[nH]c(=O)c(C#N)c2N1CCC2(CC1)CC2", "values": [
      {"measurement": "delta Tm Staurosporine positive control", "setting": "[1]", "value": 8.44},
      {"measurement": "ΔTm", "setting": "[1]", "value": 0.111},
      {"measurement": "delta Tm Staurosporine positive control", "setting": "[2]", "value": 13.7},
      {"measurement": "ΔTm", "setting": "[2]", "value": -0.51},
      {"measurement": "delta Tm Staurosporine positive control", "setting": "[3]", "value": 14.3},
      {"measurement": "ΔTm", "setting": "[3]", "value": -0.589},
      {"measurement": "delta Tm Staurosporine positive control", "setting": "[4]", "value": 7.02},
      {"measurement": "ΔTm", "setting": "[4]", "value": -2.51},
      {"measurement": "delta Tm Staurosporine positive control", "setting": "[5]", "value": 5.57},
      {"measurement": "ΔTm", "setting": "[5]", "value": -0.133},
      {"measurement": "delta Tm Staurosporine positive control", "setting": "[6]", "value": 8.03},
      {"measurement": "ΔTm", "setting": "[6]", "value": 0.098},
      {"measurement": "delta Tm Staurosporine positive control", "setting": "[7]", "value": 3.96},
      {"measurement": "ΔTm", "setting": "[7]", "value": -0.289},
      {"measurement": "delta Tm Staurosporine positive control", "setting": "[8]", "value": 4.25},
      {"measurement": "ΔTm", "setting": "[8]", "value": -1.22},
      {"measurement": "delta Tm Staurosporine positive control", "setting": "[9]", "value": 8.41},
      {"measurement": "ΔTm", "setting": "[9]", "value": -0.0871},
      {"measurement": "inhibition", "setting": "[10]", "value": 5.53, "unit": "%"},
      {"measurement": "inhibition", "setting": "[11]", "value": 3.01, "unit": "%"},
      {"measurement": "inhibition", "setting": "[12]", "value": 26.2, "unit": "%"},
      {"measurement": "inhibition", "setting": "[13]", "value": 4.16, "unit": "%"}
    ]}
  ]
}
